Like-named read-outs stand apart in the source and are kept apart here.
Biological target: mu-opioid receptor (MOR) (Homo sapiens (Human), UniProt P35372)
Experiment: cell-based
Conditions: combined with a MOR antagonist; for AUC: AUC of [Ca2+]i fluorescence
Description: In an exemplary in vitro screening method for identifying antagonist-to-agonist allosteric modifiers of a MOR, cells that express a MOR are treated with a test compound and a MOR antagonist in a cellular calcium fluorescent assay and fluorescence intensity is then measured to determine whether the MOR is activated. A test compound is identified as an antagonist-to-agonist allosteric modifier of the MOR if the MOR is activated.
EC50 herein refers to the concentration of a compound that induces a response halfway between the baseline and the maximum after a specified exposure time. AUC refers to the area under the response curve, an indication of the compound's capability of activating a MOR when combined with a MOR antagonist.
Human embryonic kidney 293 (HEK-293) cells constitutively expressing MOR (HEK-MOR) and DOR (HEK-DOR) (kindly provided by Dr. Ping-Yee Law, University of Minnesota, USA) were cultured in high-glucose Dulbecco's modified Eagle's medium (DMEM, GIBCO) supplemented with 400 μg/mL G418 (Sigma), 2 mM L-glutamine and P/S/F (100 units/mL penicillin, 100 μg/mL streptomycin, 10% fetal bovine serum). Chinese hamster ovary (CHO)-K1 cells, stably expressing hMOR and Gα15 (CHO-K1/MOR/Gα15), were cultured in F12 medium (GIBCO) supplemented with 10 μg/mL Hygromycin B (Invivogen), 20 μg/mL Zeocin (Invivogen) P/S/F (100 units/mL penicillin, 100 μg/mL streptomycin, 10% fetal bovine serum). The cultures were incubated at 37° C. in a humidified 5% CO2 incubator.
One day before the assay, CORNING® black with clear flat bottom 96-well assay plates were coated with a 0.1 mg/mL Poly-L-Lysine solution. CHO-K1/MOR/Gα15 cells were suspended in the F12 medium and plated at a density of ˜8×10^4 cells/well in 200 μL medium. Cells were incubated in a humidified atmosphere of 10% CO2 at 37° C. overnight so as to reach an 80-90% confluent cell monolayer before assay. At the day of assay, 150 μL medium/well was removed from plate. To each well, 50 μL FLIPR® calcium assay reagent dissolved in 1× assay buffer (HBSS: KCl 5 mM, KH2PO4 0.3 mM, NaCl 138 mM, NaHCO3 4 mM, Na2HPO4 0.3 mM, d-glucose 5.6 mM, with additional 20 mM HEPES and 13 mM CaCl2, pH 7.4), with 2.5 mM probenecid was added and the plate was incubated at 37° C. for 1 h. Compounds and other reagents were dissolved in the assay buffer. Using a FlexStationIII (Molecular Devices Corp.), the [Ca^2+]i fluorescence increases after robotic injections of compounds or other reagents were monitored every 1.52 s interval with excitation wavelength at 485 nm and with emission wavelength at 525 nm. The [Ca^2+]i fluorescence was measured up to 90 s after agonist injection.
A CHO-K1 cell line, expressing a MOR and Gα15 (GenScript), was used to set up a sensitive high-throughput screen (HTS) system. In a FLIPR® calcium assay using CHO-K1/MOR/Gα15 cells, activation of MOR elicits an intracellular calcium release leading to an increase in the relative fluorescence units (FRU). […] The HTS was performed in the absence or presence of an opioid antagonist, naloxone (25 nM), to identify antagonist to agonist allosteric modifiers (AAM).
A CHO-K1 cell line, expressing a MOR and Gα15 (GenScript), was used to set up a sensitive assay system for detecting μ-opioid receptor activation. […] The assay was performed in the presence of an opioid antagonist, i.e., naloxone (25 nM), naltrexone (20 nM), samidorphan (10 nM), naloxonazine dihydrochloride (20 nM), β-funaltrexamine hydrochloride (20 nM), cyprodime hydrochloride (500 nM), or nalmefene (20 nM), in combination with compound 58, an antagonist to agonist allosteric modifier (AAM), to identify activation of the μ-opioid receptor.

Sequence of mu-opioid receptor (MOR) (P35372 whole entry): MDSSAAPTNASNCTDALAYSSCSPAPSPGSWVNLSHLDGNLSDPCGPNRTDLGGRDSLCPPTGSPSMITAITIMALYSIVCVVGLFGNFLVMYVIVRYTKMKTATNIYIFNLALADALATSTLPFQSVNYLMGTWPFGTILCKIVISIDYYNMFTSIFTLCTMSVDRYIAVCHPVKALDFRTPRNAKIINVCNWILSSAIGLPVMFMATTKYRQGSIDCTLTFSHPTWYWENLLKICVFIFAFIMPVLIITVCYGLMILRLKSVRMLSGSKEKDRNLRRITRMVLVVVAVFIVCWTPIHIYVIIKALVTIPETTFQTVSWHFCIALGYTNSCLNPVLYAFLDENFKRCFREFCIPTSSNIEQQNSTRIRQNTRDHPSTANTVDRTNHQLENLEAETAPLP

Row | SMILES | AUC (CHO-K1/MOR/Gα15 cells) | EC50 (EC50, CHO-K1/MOR/Gα15 cells) [µM] | FLIPR Ca^2+ AUC | EC50 (read-out: FLIPR Ca^2+ EC50) [µM] | EC50 (CHO-K1/MOR/Gα15 cells, read-out: EC50) [µM]
1 | COc1ccc(C2SCC(=O)N2c2ccc(C(=O)O)cc2C)cc1 (centres unmarked) [Example 78] | more than 5000 | < 10 | 9368 | 6 | 
2 | Cc1cc(C(=O)O)ccc1N1C(=O)CSC1c1ccc(Cl)cc1 (centres unmarked) [Example 84] | more than 5000 | < 10 | 5509 | 7.2 | 
3 | CC(=O)c1ccc(C)c(N2C(=O)CSC2c2ccc(F)cc2)c1 (centres unmarked) [Example 90] |  | < 10 |  |  | 
4 | Cc1ccc(C(F)(F)F)cc1N1C(=O)CSC1c1ccc(F)cc1 (centres unmarked) [Example 92] |  | < 10 |  |  | 
5 | COC(=O)COc1ccc(N2C(=O)CSC2c2ccc(F)cc2)c(C)c1 (centres unmarked) [Example 93] | more than 5000 | < 10 | 11009 | 6.4 | 
6 | COC(=O)Cc1ccc(N2C(=O)CSC2c2ccc(F)cc2)c(C)c1 (centres unmarked) [Example 96] | more than 5000 | < 10 | 9657 | 10 | 
7 | Cc1cc(CC(=O)O)ccc1N1C(=O)CSC1c1ccc(F)cc1 (centres unmarked) [Example 101] |  | < 10 |  |  | 
8 | Cc1ccc(N2C(=O)CSC2c2ccc(F)cc2)c(C)c1 (centres unmarked) [Example 102] |  | < 10 |  |  | 
9 | Cc1c(F)cccc1N1C(=O)CSC1c1ccc(F)cc1 (centres unmarked) [Example 109] |  |  | 9614 | 2.6 | 
10 | Cc1cc(F)ccc1N1C(=O)CSC1c1ccc(F)cc1 (centres unmarked) [Example 110] |  |  | 6308 | 3.8 | 
11 | Cc1ccc(F)cc1N1C(=O)CSC1c1ccc(F)cc1 (centres unmarked) [Example 112] |  | < 10 |  |  | 
12 | Cc1ccc(F)cc1N1C(=O)CSC1c1cccc(F)c1 (centres unmarked) [Example 113] |  | < 10 |  |  | 
13 | CCc1ccc(C2SCC(=O)N2c2cc(F)ccc2C)cc1 (centres unmarked) [Example 117] | more than 5000 |  | 7880 | 13.5 | 
14 | Cc1ccc(F)cc1N1C(=O)CSC1c1cc(F)cc(F)c1 (centres unmarked) [Example 122] | more than 5000 |  | 7010 | 3.6 | 
15 | Cc1ccc(F)cc1N1C(=O)CSC1c1ccc(Cl)c(F)c1 (centres unmarked) [Example 123] |  |  | 4228 | 0.5 | 
16 | Cc1ccc(Cl)cc1N1C(=O)CSC1c1ccc(F)cc1 (centres unmarked) [Example 147] | more than 5000 | < 10 | 11516 | 3.2 | 
17 | Cc1ccc(Br)cc1N1C(=O)CSC1c1ccc(F)cc1 (centres unmarked) [Example 149] |  | < 10 | 4427 | 4.4 | 
18 | Cc1cc(C(=N)NO)ccc1N1C(=O)CSC1c1ccc(F)cc1 (centres unmarked) [Example 151] | more than 5000 | < 10 | 10591 | 3.4 | 
19 | CCOC(=O)c1ccc(N2C(=O)CSC2c2ccc(F)cc2)c(C)c1 (centres unmarked) [Example 152] | more than 5000 |  | 14743 | 6.3 | < 10
20 | CCOC(=O)c1ccc(N2C(=O)CSC2c2ccc(F)cc2)c(CC)c1 (centres unmarked) [Example 156] | more than 5000 | < 10 | 11998 | 6.2 | 
21 | C=Cc1cc(C(=O)O)ccc1N1C(=O)CSC1c1ccc(F)cc1 (centres unmarked) [Example 157] | more than 5000 | < 10 | 5903 | 10 | 
22 | CCCS(=O)(=O)NC(=O)c1ccc(N2C(=O)CSC2c2ccc(F)cc2)c(C)c1 (centres unmarked) [Example 160] | more than 5000 | < 10 | 13549 | 4.3 | 
23 | CCS(=O)(=O)NC(=O)c1ccc(N2C(=O)CSC2c2ccc(F)cc2)c(C)c1 (centres unmarked) [Example 162] | more than 5000 | < 10 | 13767 | 9.1 | 

Source: patent US10544113B2 (priority 2016, dated 2020)
